# Marks after values point to notes of the source that are not given here.
# How the values were obtained:
# [1] = Safety: adverse events in patients with advanced solid tumors; format: in vivo, human
# CYP3A4 [2] = molecular target: CYP3A4 (Homo sapiens, UniProt P08684); details: cited from earlier work
# [3] = cited from earlier work
# [4] = cited from earlier work; remark: listed apart in the source
# [5] = phase 1 study; cited from earlier work
# CYP3A4 [6] = details: ref Eisai, data on file; cited from earlier work
# [7] = safety analysis set n = 30, treatment phase
# Chain of CYP3A4 (Homo sapiens, UniProt P08684) (P08684 whole entry): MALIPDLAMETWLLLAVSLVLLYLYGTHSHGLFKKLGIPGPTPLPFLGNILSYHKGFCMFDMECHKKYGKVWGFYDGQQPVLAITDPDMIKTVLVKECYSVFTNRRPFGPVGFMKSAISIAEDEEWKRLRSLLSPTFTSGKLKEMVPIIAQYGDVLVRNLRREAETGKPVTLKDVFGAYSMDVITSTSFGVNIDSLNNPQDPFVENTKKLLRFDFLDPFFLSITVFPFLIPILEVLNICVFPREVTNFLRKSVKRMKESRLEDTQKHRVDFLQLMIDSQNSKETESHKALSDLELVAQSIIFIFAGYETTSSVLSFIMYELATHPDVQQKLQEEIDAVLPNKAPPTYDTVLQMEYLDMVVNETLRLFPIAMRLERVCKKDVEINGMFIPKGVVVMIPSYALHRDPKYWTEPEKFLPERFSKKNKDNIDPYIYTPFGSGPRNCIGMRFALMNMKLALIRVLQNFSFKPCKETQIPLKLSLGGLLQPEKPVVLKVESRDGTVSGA
smiles,measurement,setting,value
COc1cc2nccc(Oc3ccc(NC(=O)NC4CC4)c(Cl)c3)c2cc1C(N)=O [lenvatinib],Grade of treatment-related SAEs,[1]; all treatment-related SAEs,≤ 3 grade
same,New AEs in the extension phase,"[1]; extension phase (Eisai, data on file)",No new AEs
same,Patients who died during the treatment phase,"[1]; grade 5 TEAE (intestinal obstruction), related to underlying colon cancer",One
same,Tolerability,"[1]; lenvatinib 24 mg once daily, patients with advanced solid tumors",generally well tolerated
same,Abdominal pain upper: SAEs,[1]; safety analysis set n = 30,1 (3.3) n (%)
same,Abdominal pain: SAEs,[1]; safety analysis set n = 30,2 (6.7) n (%)
same,Abdominal pain: TEAEs,[1]; safety analysis set n = 30,3 (10.0) n (%)
same,Asthenia: SAEs,[1]; safety analysis set n = 30,1 (3.3) n (%)
same,Asthenia: TEAEs,[1]; safety analysis set n = 30,3 (10.0) n (%)
same,Asthenia: treatment-related AEs,[1]; safety analysis set n = 30,2 (6.7) n (%)
same,Bradycardia: SAEs,[1]; safety analysis set n = 30,1 (3.3) n (%)
same,Cardiac disorders: SAEs,[1]; safety analysis set n = 30,2 (6.7) n (%)
same,Cerebral hemorrhage: SAEs,[1]; safety analysis set n = 30,1 (3.3) n (%)
same,Cough: TEAEs,[1]; safety analysis set n = 30,2 (6.7) n (%)
same,Diarrhea: TEAEs,[1]; safety analysis set n = 30,7 (23.3) n (%)
same,Diarrhea: treatment-related AEs,[1]; safety analysis set n = 30,3 (10.0) n (%)
same,Dysphonia: TEAEs,[1]; safety analysis set n = 30,2 (6.7) n (%)
same,Dyspnea: SAEs,[1]; safety analysis set n = 30,1 (3.3) n (%)
same,Dyspnea: TEAEs,[1]; safety analysis set n = 30,2 (6.7) n (%)
same,Fatigue: TEAEs,[1]; safety analysis set n = 30,8 (26.7) n (%)
same,Fatigue: treatment-related AEs,[1]; safety analysis set n = 30,5 (16.7) n (%)
same,Gastrointestinal disorders: SAEs,[1]; safety analysis set n = 30,4 (13.3) n (%)
same,Gastrointestinal disorders: TEAEs,[1]; safety analysis set n = 30,12 (40.0) n (%)
same,Gastrointestinal disorders: treatment-related AEs,[1]; safety analysis set n = 30,6 (20.0) n (%)
same,General disorders: SAEs,[1]; safety analysis set n = 30,1 (3.3) n (%)
same,General disorders: TEAEs,[1]; safety analysis set n = 30,11 (36.7) n (%)
same,General disorders: treatment-related AEs,[1]; safety analysis set n = 30,7 (23.3) n (%)
same,Headache: TEAEs,[1]; safety analysis set n = 30,3 (10.0) n (%)
same,Headache: treatment-related AEs,[1]; safety analysis set n = 30,2 (6.7) n (%)
same,Hypertension: SAEs,[1]; safety analysis set n = 30,3 (10.0) n (%)
same,Hypertension: TEAEs,[1]; safety analysis set n = 30,7 (23.3) n (%)
same,Hypertension: treatment-related AEs,[1]; safety analysis set n = 30,6 (20.0) n (%)
same,Nausea: TEAEs,[1]; safety analysis set n = 30,4 (13.3) n (%)
same,Nausea: treatment-related AEs,[1]; safety analysis set n = 30,2 (6.7) n (%)
same,Nervous system disorders: SAEs,[1]; safety analysis set n = 30,1 (3.3) n (%)
same,Nervous system disorders: TEAEs,[1]; safety analysis set n = 30,5 (16.7) n (%)
same,Nervous system disorders: treatment-related AEs,[1]; safety analysis set n = 30,2 (6.7) n (%)
same,Patient deaths from TEAEs: SAEs,[1]; safety analysis set n = 30,1 (3.33) n (%)
same,Pyrexia: SAEs,[1]; safety analysis set n = 30,1 (3.3) n (%)
same,Rectal hemorrhage: SAEs,[1]; safety analysis set n = 30,1 (3.3) n (%)
same,"Respiratory, thoracic, and mediastinal disorders: SAEs",[1]; safety analysis set n = 30,1 (3.3) n (%)
same,"Respiratory, thoracic, and mediastinal disorders: TEAEs",[1]; safety analysis set n = 30,8 (26.7) n (%)
same,Stress cardiomyopathy: SAEs,[1]; safety analysis set n = 30,1 (3.3) n (%)
same,Vascular disorders: SAEs,[1]; safety analysis set n = 30,3 (10.0) n (%)
same,Vascular disorders: TEAEs,[1]; safety analysis set n = 30,7 (23.3) n (%)
same,Vascular disorders: treatment-related AEs,[1]; safety analysis set n = 30,6 (20.0) n (%)
same,Vomiting: TEAEs,[1]; safety analysis set n = 30,2 (6.7) n (%)
same,Vomiting: treatment-related AEs,[1]; safety analysis set n = 30,2 (6.7) n (%)
same,Patients with any TEAEs: SAEs,[1]; [7],10 (33.3) n (%)
same,Patients with any TEAEs: TEAEs,[1]; [7],26 (86.7) n (%)
same,Patients with any TEAEs: treatment-related AEs,[1]; [7],17 (56.7) n (%)
same,Intestinal obstruction: SAEs,"[1]; safety analysis set n = 30, this SAE resulted in patient death",1 (3.3)^c n (%)
same,Patients who discontinued treatment due to a TEAE,"[1]; treatment phase, n = 30",6.7%
same,Patients with SAEs considered treatment related,"[1]; treatment phase, n = 30",Four
same,Patients with TEAEs leading to lenvatinib dose modification,"[1]; treatment phase, n = 30",40%
same,Patients with at least 1 TEAE,"[1]; treatment phase, n = 30",86.7%
same,Patients with dose reduction,"[1]; treatment phase, n = 30",13.3%
same,Patients with lenvatinib treatment interruption,"[1]; treatment phase, n = 30",26.7%
same,"SAE abdominal pain, patients","[1]; treatment phase, n = 30",6.7%
same,"SAE hypertension, patients","[1]; treatment phase, n = 30",10%
same,"TEAE diarrhea, patients","[1]; treatment phase, n = 30",23.3%
same,"TEAE fatigue, patients","[1]; treatment phase, n = 30",26.7%
same,"TEAE hypertension, patients","[1]; treatment phase, n = 30",23.3%
same,"Treatment-related TEAE diarrhea, patients","[1]; treatment phase, n = 30",10.0%
same,"Treatment-related TEAE fatigue, patients","[1]; treatment phase, n = 30",16.7%
same,"Treatment-related TEAE hypertension, patients","[1]; treatment phase, n = 30",20.0%
same,Effect on midazolam metabolism in physiologically based pharmacokinetic model,CYP3A4 [2],negligible effects
same,Interaction with ketoconazole (inhibitor of CYP3A4),[3],not clinically significant
same,tmax,[4]; after dosing,1 to 4 h
same,half-life,[4],28 h
same,Pharmacokinetic drug–drug interactions in combination with everolimus,[5],no significant pharmacokinetic drug–drug interactions
same,Action on CYP3A4,CYP3A4 [6],weak inducer and time-dependent inhibitor of CYP3A4

# — PMC7211203 (European Journal of Drug Metabolism and Pharmacokinetics, 2020)
